The structures appear in SMILES notation. Peptide text beside a SMILES is read from it.

Assay [1] addresses T1, CRF1R (Homo sapiens, UniProt P34998).
T1 sequence (P34998 24-415): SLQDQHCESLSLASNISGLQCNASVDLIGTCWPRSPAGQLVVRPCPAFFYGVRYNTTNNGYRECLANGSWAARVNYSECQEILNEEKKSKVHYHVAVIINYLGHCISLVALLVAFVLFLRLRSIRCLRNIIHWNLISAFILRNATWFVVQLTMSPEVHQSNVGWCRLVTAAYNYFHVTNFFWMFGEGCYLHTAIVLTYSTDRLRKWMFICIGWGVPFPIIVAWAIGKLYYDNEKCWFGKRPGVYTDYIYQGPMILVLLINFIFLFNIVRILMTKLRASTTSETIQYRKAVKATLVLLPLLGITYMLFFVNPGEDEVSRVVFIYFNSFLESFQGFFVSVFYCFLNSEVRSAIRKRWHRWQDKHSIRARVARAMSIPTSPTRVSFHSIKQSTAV
Nature of the assay: CRF1R agonist activation (EC50 / Emax), called comparative CRF binding. The assay is classed as cell-based. The note with it: for EC50: read-out: CRF1R EC50; for Emax: read-out: CRF1R Emax. The procedure, abridged:
(§1)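 Read-out is Gαs-driven cAMP induction, quantified directly in lysates or through CRE-reporter gene expression, after treating CRF1R- or CRF2R-expressing cells with peptide. Vehicle-treated cells serve as the comparison.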

Assay [2] addresses T2, CRF2R (Homo sapiens, UniProt Q13324).
T2 sequence (Q13324 1-411): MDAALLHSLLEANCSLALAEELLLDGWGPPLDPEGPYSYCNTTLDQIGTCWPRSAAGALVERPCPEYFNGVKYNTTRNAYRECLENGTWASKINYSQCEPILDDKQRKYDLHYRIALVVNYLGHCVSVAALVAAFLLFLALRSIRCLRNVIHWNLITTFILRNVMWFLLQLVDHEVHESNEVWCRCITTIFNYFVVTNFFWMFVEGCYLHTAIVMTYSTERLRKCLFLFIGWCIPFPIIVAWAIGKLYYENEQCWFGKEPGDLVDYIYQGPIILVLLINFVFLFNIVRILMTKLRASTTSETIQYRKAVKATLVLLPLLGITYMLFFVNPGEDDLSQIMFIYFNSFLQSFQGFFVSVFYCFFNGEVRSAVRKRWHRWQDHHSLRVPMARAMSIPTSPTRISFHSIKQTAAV
Nature of the assay: CRF2R agonist activation (EC50 / Emax), called comparative CRF binding. The assay is classed as cell-based. The note with it: for EC50: read-out: CRF2R EC50; for Emax: read-out: CRF2R Emax. The procedure, abridged: as §1

By EC50 is commonly meant the midpoint of the concentration-response curve. The term Emax denotes the greatest response seen or fitted, relative to the assay's reference. Turning to `CC[C@H](C)[C@H](N)C(=O)N[C@H](C(=O)N[C@@H](CC(C)C)C(=O)N[C@@H](CO)C(=O)N[C@@H](CC(C)C)C(=O)N[C@@H](CC(=O)O)C(=O)N[C@H](C(=O)N1CCC[C@H]1C(=O)N[C@H](C(=O)NCC(=O)N[C@@H](CC(C)C)C(=O)N[C@@H](CC(C)C)C(=O)N[C@@H](CCC(N)=O)C(=O)N[C@H](C(=O)N[C@@H](CC(C)C)C(=O)N[C@@H](CC(C)C)C(=O)N[C@@H](CCC(=O)O)C(=O)N[C@@H](CCC(N)=O)C(=O)N[C@@H](CCCNC(=N)N)C(=O)N[C@@H](CCCNC(=N)N)C(=O)N[C@@H](C)C(=O)N[C@@H](C)C(=O)N[C@@H](CCCNC(=N)N)C(=O)N[C@@H](CCC(=O)O)C(=O)N[C@@H](CCC(N)=O)C(=O)N[C@@H](C)C(=O)N[C@H](C(=O)N[C@H](C(=O)N[C@@H](CC(N)=O)C(=O)N[C@@H](C)C(=O)N[C@@H](CCCNC(=N)N)C(=O)N[C@H](C(=O)N[C@@H](CC(C)C)C(=O)N[C@@H](C)C(=O)N[C@@H](CCCNC(=N)N)C(=O)N[C@H](C(N)=O)C(C)C)[C@@H](C)CC)[C@@H](C)O)[C@@H](C)O)[C@@H](C)CC)[C@@H](C)CC)C(C)C)C(C)C` [compound 133] (H-IVLSLDVPIGLLQILLEQRRAAREQATTNARILARV-NH2; N-terminus assumed), the figures for the EC50 in assay [1] and in assay [2] were > 100 nM and 12.2 nM, respectively. The Emax was determined as 4% in assay [1] and 88% in assay [2].
Consider `CC[C@H](C)[C@H](N)C(=O)N[C@H](C(=O)N[C@@H](CC(C)C)C(=O)N[C@@H](CO)C(=O)N[C@@H](CC(C)C)C(=O)N[C@@H](CC(=O)O)C(=O)N[C@H](C(=O)N1CCC[C@H]1C(=O)N[C@H](C(=O)NCC(=O)N[C@@H](CC(C)C)C(=O)N[C@@H](CC(C)C)C(=O)N[C@@H](CCC(N)=O)C(=O)N[C@H](C(=O)N[C@@H](CC(C)C)C(=O)N[C@@H](CC(C)C)C(=O)N[C@@H](CCC(=O)O)C(=O)N[C@@H](CCC(N)=O)C(=O)N[C@@H](C)C(=O)N[C@@H](C)C(=O)N[C@@H](C)C(=O)N[C@@H](C)C(=O)N[C@@H](CCCNC(=N)N)C(=O)N[C@@H](CCC(=O)O)C(=O)N[C@@H](CCC(N)=O)C(=O)N[C@@H](C)C(=O)N[C@H](C(=O)N[C@H](C(=O)N[C@@H](CC(N)=O)C(=O)N[C@@H](C)C(=O)N[C@@H](CCCNC(=N)N)C(=O)N[C@H](C(=O)N[C@@H](CC(C)C)C(=O)N[C@@H](C)C(=O)N[C@@H](CCCNC(=N)N)C(=O)N[C@H](C(N)=O)C(C)C)[C@@H](C)CC)[C@@H](C)O)[C@@H](C)O)[C@@H](C)CC)[C@@H](C)CC)C(C)C)C(C)C` [compound 134] (H-IVLSLDVPIGLLQILLEQAAAAREQATTNARILARV-NH2), for which the maximal effect (Emax) in assay [1] stood at 7%; in assay [2], 19%.
For the compound `CC[C@H](C)[C@H](N)C(=O)N[C@H](C(=O)N[C@@H](CC(C)C)C(=O)N[C@@H](CO)C(=O)N[C@@H](CC(C)C)C(=O)N[C@@H](CC(=O)O)C(=O)N[C@H](C(=O)N1CCC[C@H]1C(=O)N[C@H](C(=O)NCC(=O)N[C@@H](CC(C)C)C(=O)N[C@@H](CC(C)C)C(=O)N[C@@H](CCC(N)=O)C(=O)N[C@H](C(=O)N[C@@H](CC(C)C)C(=O)N[C@@H](CC(C)C)C(=O)N[C@@H](CCC(=O)O)C(=O)N[C@@H](CCC(N)=O)C(=O)N[C@@H](C)C(=O)N[C@@H](C)C(=O)N[C@@H](CCCNC(=N)N)C(=O)N[C@@H](C)C(=O)N[C@@H](C)C(=O)N[C@@H](CCCNC(=N)N)C(=O)N[C@@H](CCC(=O)O)C(=O)N[C@@H](CCC(N)=O)C(=O)N[C@@H](C)C(=O)N[C@H](C(=O)N[C@H](C(=O)N[C@@H](CC(N)=O)C(=O)N[C@@H](C)C(=O)N[C@@H](CCCNC(=N)N)C(=O)N[C@H](C(=O)N[C@@H](CC(C)C)C(=O)N[C@@H](C)C(=O)N[C@@H](CCCNC(=N)N)C(=O)N[C@H](C(N)=O)C(C)C)[C@@H](C)CC)[C@@H](C)O)[C@@H](C)O)[C@@H](C)CC)[C@@H](C)CC)C(C)C)C(C)C` [compound 135] (H-IVLSLDVPIGLLQILLEQAARAAREQATTNARILARV-NH2), the results for the maximal response (Emax) in assay [1] and in assay [2] were 6% and 76%, respectively.
As for `CC[C@H](C)[C@H](N)C(=O)N[C@H](C(=O)N[C@@H](CC(C)C)C(=O)N[C@@H](CO)C(=O)N[C@@H](CC(C)C)C(=O)N[C@@H](CC(=O)O)C(=O)N[C@H](C(=O)N1CCC[C@H]1C(=O)N[C@H](C(=O)NCC(=O)N[C@@H](CC(C)C)C(=O)N[C@@H](CC(C)C)C(=O)N[C@@H](CCC(N)=O)C(=O)N[C@H](C(=O)N[C@@H](CC(C)C)C(=O)N[C@@H](CC(C)C)C(=O)N[C@@H](CCC(=O)O)C(=O)N[C@@H](CCC(N)=O)C(=O)N[C@@H](CCCNC(=N)N)C(=O)N[C@@H](C)C(=O)N[C@@H](C)C(=O)N[C@@H](CCCNC(=N)N)C(=O)N[C@@H](CCC(=O)O)C(=O)N[C@@H](CCC(N)=O)C(=O)N[C@@H](C)C(=O)N[C@H](C(=O)N[C@H](C(=O)N[C@@H](CC(N)=O)C(=O)N[C@@H](C)C(=O)N[C@@H](CCCNC(=N)N)C(=O)N[C@H](C(=O)N[C@@H](CC(C)C)C(=O)N[C@@H](C)C(=O)N[C@@H](CCCNC(=N)N)C(=O)N[C@H](C(N)=O)C(C)C)[C@@H](C)CC)[C@@H](C)O)[C@@H](C)O)[C@@H](C)CC)[C@@H](C)CC)C(C)C)C(C)C` [compound 136] (H-IVLSLDVPIGLLQILLEQRAAREQATTNARILARV-NH2; N-terminus assumed), in assay [1], the concentration giving a half-maximal response (EC50) is > 100 nM and the maximal response (Emax) is 8%. In assay [2], the EC50 turned out to be 23.4 nM and the maximum response (Emax) is 68%.
With `CC[C@H](C)[C@H](N)C(=O)N[C@H](C(=O)N[C@@H](CC(C)C)C(=O)N[C@@H](CO)C(=O)N[C@@H](CC(C)C)C(=O)N[C@@H](CC(=O)O)C(=O)N[C@H](C(=O)N1CCC[C@H]1C(=O)N[C@H](C(=O)NCC(=O)N[C@@H](CC(C)C)C(=O)N[C@@H](CC(C)C)C(=O)N[C@@H](CCC(N)=O)C(=O)N[C@H](C(=O)N[C@@H](CC(C)C)C(=O)N[C@@H](CC(C)C)C(=O)N[C@@H](CCC(=O)O)C(=O)N[C@@H](CCC(N)=O)C(=O)N[C@@H](CCCNC(=N)N)C(=O)N[C@@H](C)C(=O)N[C@@H](CCCNC(=N)N)C(=O)N[C@@H](C)C(=O)N[C@@H](C)C(=O)N[C@@H](CCCNC(=N)N)C(=O)N[C@@H](CCC(=O)O)C(=O)N[C@@H](CCC(N)=O)C(=O)N[C@@H](C)C(=O)N[C@H](C(=O)N[C@H](C(=O)N[C@@H](CC(N)=O)C(=O)N[C@@H](C)C(=O)N[C@@H](CCCNC(=N)N)C(=O)N[C@H](C(=O)N[C@@H](CC(C)C)C(=O)N[C@@H](C)C(=O)N[C@@H](CCCNC(=N)N)C(=O)N[C@H](C(N)=O)C(C)C)[C@@H](C)CC)[C@@H](C)O)[C@@H](C)O)[C@@H](C)CC)[C@@H](C)CC)C(C)C)C(C)C` [compound 137] (H-IVLSLDVPIGLLQILLEQRARAAREQATTNARILARV-NH2; N-terminus assumed), the results for the Emax in assay [1] and in assay [2] were 4% and 100%, respectively.
Take `CC[C@H](C)[C@H](N)C(=O)N[C@H](C(=O)N[C@@H](CC(C)C)C(=O)N[C@@H](CO)C(=O)N[C@@H](CC(C)C)C(=O)N[C@@H](CC(=O)O)C(=O)N[C@H](C(=O)N1CCC[C@H]1C(=O)N[C@H](C(=O)NCC(=O)N[C@@H](CC(C)C)C(=O)N[C@@H](CC(C)C)C(=O)N[C@@H](CCC(N)=O)C(=O)N[C@H](C(=O)N[C@@H](CC(C)C)C(=O)N[C@@H](CC(C)C)C(=O)N[C@@H](CCC(=O)O)C(=O)N[C@@H](CCC(N)=O)C(=O)N[C@@H](C)C(=O)N[C@@H](C)C(=O)N[C@@H](CCCNC(=N)N)C(=O)N[C@@H](CCC(=O)O)C(=O)N[C@@H](CCC(N)=O)C(=O)N[C@@H](C)C(=O)N[C@H](C(=O)N[C@H](C(=O)N[C@@H](CC(N)=O)C(=O)N[C@@H](C)C(=O)N[C@@H](CCCNC(=N)N)C(=O)N[C@H](C(=O)N[C@@H](CC(C)C)C(=O)N[C@@H](C)C(=O)N[C@@H](CCCNC(=N)N)C(=O)N[C@H](C(N)=O)C(C)C)[C@@H](C)CC)[C@@H](C)O)[C@@H](C)O)[C@@H](C)CC)[C@@H](C)CC)C(C)C)C(C)C` [compound 138] (H-IVLSLDVPIGLLQILLEQAAREQATTNARILARV-NH2; N-terminus assumed): in assay [1], the EC50 was > 100 nM and the Emax turned out to be 5%. Besides, in assay [2], the EC50 stood at 59 nM and the Emax was determined as 46%.
